What was measured:
[1] = Form A stability tests under simulated drug substance storage conditions; format: physicochemical
Method: Tables 3 and 4: Form A stability data: Compound (I) in the form of Form A was packed in double bagged polythene bags (fastened with cable/security ties) and placed inside 3.6 L Curtec kegs (HDPE) to simulate typical drug substance storage conditions. Stability tests were performed at 40° C./75% RH (table 3) and 25° C./60% RH (table 4).

[2] = Hygroscopicity (absorption-desorption spectrum); format: physicochemical; conditions: FIG. 2 / FIG. 7
Excerpt: FIG. 2: Absorption-Desorption spectrum of form A FIG. 7: Absorption-desorption spectrum of form B

[3] = molecular target: T1, Sirt1 (Homo sapiens, UniProt Q96EB6); conditions: known from WO2005026112; cited from earlier work
T1 sequence (Q96EB6 1-747): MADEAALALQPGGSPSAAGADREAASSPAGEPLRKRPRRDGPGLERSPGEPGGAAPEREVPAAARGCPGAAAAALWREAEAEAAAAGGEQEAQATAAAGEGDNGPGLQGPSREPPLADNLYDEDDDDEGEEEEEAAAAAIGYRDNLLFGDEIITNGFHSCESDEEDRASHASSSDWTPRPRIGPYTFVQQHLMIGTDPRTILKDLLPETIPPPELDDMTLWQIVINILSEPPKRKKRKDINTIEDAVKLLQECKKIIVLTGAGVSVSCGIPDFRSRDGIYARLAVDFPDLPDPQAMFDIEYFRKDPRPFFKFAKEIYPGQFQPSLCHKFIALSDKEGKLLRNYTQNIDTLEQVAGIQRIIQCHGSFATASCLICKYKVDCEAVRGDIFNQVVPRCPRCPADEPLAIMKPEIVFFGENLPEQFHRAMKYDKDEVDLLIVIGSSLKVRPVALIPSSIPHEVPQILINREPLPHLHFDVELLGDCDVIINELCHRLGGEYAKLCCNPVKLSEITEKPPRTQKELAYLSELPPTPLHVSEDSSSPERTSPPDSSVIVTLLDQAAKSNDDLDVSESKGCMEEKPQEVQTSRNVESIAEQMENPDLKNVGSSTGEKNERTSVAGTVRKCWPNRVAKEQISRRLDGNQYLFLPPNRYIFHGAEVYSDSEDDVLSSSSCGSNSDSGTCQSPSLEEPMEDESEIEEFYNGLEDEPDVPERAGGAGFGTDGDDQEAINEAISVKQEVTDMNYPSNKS

NC(=O)C1CCCc2c1[nH]c1ccc(Cl)cc21 (centres unmarked) [Form A, 6-Chloro-2,3,4,9-tetrahydro-1H-carbazole-1-carboxamide]
DSC (conforms to polymorph A) ([1]; 25° C./60% RH, t = 0): Conforms
Impurity content (by HPLC), no single impurity greater than 0.50% area ([1]; 25° C./60% RH, t = 0): Conforms
XRPD (conforms to polymorph) ([1]; 25° C./60% RH, t = 0): Conforms
Assay (by HPLC) ([1]; 25° C./60% RH, t = 0, on an anhydrous and solvent free basis, spec 98.0-102.0% w/w): 99.7% w/w
Water content (by KF titration) ([1]; 25° C./60% RH, t = 0, spec: not more than 0.5% w/w): <0.1% w/w
Impurity content (by HPLC), total impurities ([1]; 25° C./60% RH, t = 0, spec: not more than 2.0% area): 0.31% area
Description ([1]; 25° C./60% RH, t = 0, spec: white to off-white solid): Off-white
Assay (by HPLC) ([1]; 25° C./60% RH, t = 1 month): 99.0% w/w
Description ([1]; 25° C./60% RH, t = 1 month): Off-white
Impurity content (by HPLC), no single impurity greater than 0.50% area ([1]; 25° C./60% RH, t = 1 month): Conforms
Impurity content (by HPLC), total impurities ([1]; 25° C./60% RH, t = 1 month): 0.54% area
Water content (by KF titration) ([1]; 25° C./60% RH, t = 1 month): <0.1% w/w
Assay (by HPLC) ([1]; 25° C./60% RH, t = 3 months): 99.1% w/w
Description ([1]; 25° C./60% RH, t = 3 months): Off-white
Impurity content (by HPLC), no single impurity greater than 0.50% area ([1]; 25° C./60% RH, t = 3 months): Conforms
Impurity content (by HPLC), total impurities ([1]; 25° C./60% RH, t = 3 months): 0.22% area
Water content (by KF titration) ([1]; 25° C./60% RH, t = 3 months): 0.2% w/w
Assay (by HPLC) ([1]; 25° C./60% RH, t = 6 months): 98.7% w/w
DSC (conforms to polymorph A) ([1]; 25° C./60% RH, t = 6 months): Conforms
Description ([1]; 25° C./60% RH, t = 6 months): Off-white
Impurity content (by HPLC), no single impurity greater than 0.50% area ([1]; 25° C./60% RH, t = 6 months): Conforms
Impurity content (by HPLC), total impurities ([1]; 25° C./60% RH, t = 6 months): 0.32% area
Water content (by KF titration) ([1]; 25° C./60% RH, t = 6 months): 0.1% w/w
XRPD (conforms to polymorph) ([1]; 25° C./60% RH, t = 6 months): Conforms
Assay (by HPLC) ([1]; 25° C./60% RH, t = 9 months): 99.4% w/w
Description ([1]; 25° C./60% RH, t = 9 months): Off-white
Impurity content (by HPLC), no single impurity greater than 0.50% area ([1]; 25° C./60% RH, t = 9 months): Conforms
Impurity content (by HPLC), total impurities ([1]; 25° C./60% RH, t = 9 months): 0.29% area
Water content (by KF titration) ([1]; 25° C./60% RH, t = 9 months): <0.1% w/w
Assay (by HPLC) ([1]; 25° C./60% RH, t = 12 months): 99.0% w/w
DSC (conforms to polymorph A) ([1]; 25° C./60% RH, t = 12 months): Conforms
Description ([1]; 25° C./60% RH, t = 12 months): Off-white
Impurity content (by HPLC), no single impurity greater than 0.50% area ([1]; 25° C./60% RH, t = 12 months): Conforms
Impurity content (by HPLC), total impurities ([1]; 25° C./60% RH, t = 12 months): 0.27% area
Water content (by KF titration) ([1]; 25° C./60% RH, t = 12 months): 0.1% w/w
XRPD (conforms to polymorph) ([1]; 25° C./60% RH, t = 12 months): Conforms
Assay (by HPLC) ([1]; 25° C./60% RH, t = 18 months): 98.6% w/w
Description ([1]; 25° C./60% RH, t = 18 months): Off-white
Impurity content (by HPLC), no single impurity greater than 0.50% area ([1]; 25° C./60% RH, t = 18 months): Conforms
Impurity content (by HPLC), total impurities ([1]; 25° C./60% RH, t = 18 months): 0.26 % area
Water content (by KF titration) ([1]; 25° C./60% RH, t = 18 months): 0.1% w/w
Assay (by HPLC) ([1]; 25° C./60% RH, t = 24 months): 98.2% w/w
DSC (conforms to polymorph A) ([1]; 25° C./60% RH, t = 24 months): Conforms
Description ([1]; 25° C./60% RH, t = 24 months): Off-white
Impurity content (by HPLC), no single impurity greater than 0.50% area ([1]; 25° C./60% RH, t = 24 months): Conforms
Impurity content (by HPLC), total impurities ([1]; 25° C./60% RH, t = 24 months): 0.39% area
Water content (by KF titration) ([1]; 25° C./60% RH, t = 24 months): <0.1% w/w
XRPD (conforms to polymorph) ([1]; 25° C./60% RH, t = 24 months): Conforms
DSC (conforms to polymorph A) ([1]; 40° C./75% RH, t = 0): Conforms
Impurity content (by HPLC), no single impurity greater than 0.50% area ([1]; 40° C./75% RH, t = 0): Conforms
XRPD (conforms to polymorph A) ([1]; 40° C./75% RH, t = 0): Conforms
Assay (by HPLC) ([1]; 40° C./75% RH, t = 0, anhydrous and solvent free-basis, spec 98.0-102.0% w/w): 99.7% w/w
Water content (by KF titration) ([1]; 40° C./75% RH, t = 0, spec: not more than 0.5% w/w): <0.1% w/w
Impurity content (by HPLC), total impurities ([1]; 40° C./75% RH, t = 0, spec: not more than 2.0% area): 0.31% area
Description ([1]; 40° C./75% RH, t = 0, spec: white to off-white solid): Off-white
Description ([1]; 40° C./75% RH, t = 1 month): Off-white
Impurity content (by HPLC), no single impurity greater than 0.50% area ([1]; 40° C./75% RH, t = 1 month): Conforms
Impurity content (by HPLC), total impurities ([1]; 40° C./75% RH, t = 1 month): 0.25% area
Water content (by KF titration) ([1]; 40° C./75% RH, t = 1 month): <0.1% w/w
Assay (by HPLC) ([1]; 40° C./75% RH, t = 1 month, anhydrous and solvent free-basis): 98.9% w/w
Description ([1]; 40° C./75% RH, t = 3 months): Off-white
Impurity content (by HPLC), no single impurity greater than 0.50% area ([1]; 40° C./75% RH, t = 3 months): Conforms
Impurity content (by HPLC), total impurities ([1]; 40° C./75% RH, t = 3 months): 0.25% area
Water content (by KF titration) ([1]; 40° C./75% RH, t = 3 months): 0.4% w/w
Assay (by HPLC) ([1]; 40° C./75% RH, t = 3 months, anhydrous and solvent free-basis): 99.4% w/w
Description ([1]; 40° C./75% RH, t = 6 months): Off-white
Impurity content (by HPLC), no single impurity greater than 0.50% area ([1]; 40° C./75% RH, t = 6 months): Conforms
Impurity content (by HPLC), total impurities ([1]; 40° C./75% RH, t = 6 months): 0.33% area
Water content (by KF titration) ([1]; 40° C./75% RH, t = 6 months): 0.1% w/w
XRPD (conforms to polymorph A) ([1]; 40° C./75% RH, t = 6 months): Conforms
Assay (by HPLC) ([1]; 40° C./75% RH, t = 6 months, anhydrous and solvent free-basis): 99.0% w/w
Stability over time ([1]; Tables 3 and 4 (40° C./75% RH and 25° C./60% RH)): stable over time

NC(=O)C1CCCc2c1[nH]c1ccc(Cl)cc21 (centres unmarked) [Form B, 6-Chloro-2,3,4,9-tetrahydro-1H-carbazole-1-carboxamide]
Hygroscopicity [2]: non hygroscopic

NC(=O)C1CCCc2c1[nH]c1ccc(Cl)cc21 (racemic) [Compound (I), rac-6-Chloro-2,3,4,9-tetrahydro-1H-carbazole-1-carboxamide]
anti Sirt1 activity [3]: anti Sirt1 activity

Reference: patent publication US10329254B2, “Process for the preparation of 6-chloro-2,3,4,9-tetrahydro-1H-carbazole-1-carboxamide and intermediates thereof” (AOP ORPHAN PHARMACEUTICALS AG, priority 2011, dated 2019)
